One assay addresses T1, hP2X3 (Homo sapiens, UniProt P56373).
T1 construct: expressed in transfected cells
T1 sequence (P56373 1-397): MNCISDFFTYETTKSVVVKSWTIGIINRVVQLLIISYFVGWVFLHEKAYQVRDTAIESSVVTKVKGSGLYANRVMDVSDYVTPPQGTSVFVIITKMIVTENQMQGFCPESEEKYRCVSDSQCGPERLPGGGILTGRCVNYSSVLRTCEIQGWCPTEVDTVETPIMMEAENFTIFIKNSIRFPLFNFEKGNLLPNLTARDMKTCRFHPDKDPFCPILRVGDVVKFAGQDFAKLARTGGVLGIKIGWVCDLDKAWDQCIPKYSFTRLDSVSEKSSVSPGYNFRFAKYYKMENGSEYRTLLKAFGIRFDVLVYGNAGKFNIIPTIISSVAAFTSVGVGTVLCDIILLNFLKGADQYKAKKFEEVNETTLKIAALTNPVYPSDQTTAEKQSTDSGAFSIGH
The assay can be described thus: Calcium uptake assay (Ca influx), P2X antagonist assay, P2X3 homomer. The format is cell-based. Conditions: inhibition of agonist-induced calcium influx. The source says:
(§1) Human P2X3 (Accession no. NM_002559), P2X2 (Accession no. NM_170682) and Rat P2X3 (Accession no. NM_031075) and P2X2 (Accession no. NM_053656) are cloned into a mammalian expression vector (e.g., pcDNAS/TO or pcDNA3 Invitrogen). The human P2X2/3 chimera clone is created as described by Neelands et al, and then cloned into an expression vector as above. Receptors are expressed in cells (e.g., HEK293 or 1321N1 (obtained from the ECACC)) via transient transfection using standard lipid mediated transfection, or by creation of stable transfectants for each receptor. For expression of the P2X2/3 heteromeric receptor, the P2X3 expression vector is stably transfected into a cell line already stably expressing P2X2. P2X2/3 heteromer function is isolated using pharmacological methods. Cell lines are maintained in DMEM+5% Glutamax, the appropriate level of selective antibiotic, and 10% heat inactivated FBS.
(§2) Functional activity of compounds at the P2X receptor is determined by measuring their ability to inhibit agonist-induced calcium influx. Compounds are tested for antagonist activity against the P2X2/3 chimera, the P2X3 homomer, or the P2X2/3 heteromer. At the start of each screening day, the agonist EC50 is determined. Compound % inhibition or IC50s are subsequently determined using a predetermined agonist concentration (EC50-90 depending on cell line) as a stimulus. The agonists used are αβMeATP, ATP, or other ATP analogs. Compounds may be tested at concentrations ranging from 1 pM to 10 μM.
(§3) To test for antagonist activity, cells expressing the appropriate receptor are seeded onto 96 or 384 well plates 18-24 hours prior to assay. On the day of the assay, cells are loaded with calcium-sensitive fluorescent dye (e.g., Fluo-4 no wash reagent-Invitrogen cat#F36206, or the BD™ PBX Calcium Assay Kit-BD cat #640175) in Hank's Buffered Salt Solution (HBSS) with up to 10 mM supplemental CaCl2. Plates are incubated at 37° C. and then equilibrated at room temperature. Antagonism of agonist-induced calcium influx is measured using a fluorescent imaging plate reader (e.g. FLIPR^TETRA, Molecular Devices, Sunnyvale, Calif.). The assay comprises two stages: a pre-treatment phase followed by a treatment phase. Compounds may be tested as follows: For the pre-treatment phase, 50 μL of 3× concentration of test compound in HBSS is added to cells containing 100 μL of dye loading media to achieve a final concentration of 1× test compound. For the treatment phase, at a set interval after pre-treatment (1-30 minutes), 50 μL of 1× test compound plus 4× agonist solution is added, resulting in a final concentration of 1× compound and 1× agonist. Fluorescence is measured at 0.1-3 second intervals—with an excitation wavelength of 494 nm and an emission wavelength of 515 nm. Responses are measured as (peak fluorescence after agonist addition) minus (baseline fluorescence prior to treatment). Percent inhibition is calculated as follows:
(§4) [formula] IC50 values are determined by analyzing dose response data in a 4 parameter logistic fit using GraphPad Prizm.
(§5) The following compounds have been or can be prepared according to the synthetic methods described herein. A calcium uptake assay was performed as described above and the activity of each compound is expressed as follows: […]

A further assay has as its target T2, hP2X2/3H (Homo sapiens, UniProt P56373+Q9UBL9).
T2 construct: expressed in transfected cells
T2 sequence (P56373 1-397): T1 sequence (P56373 1-397)
T2 sequence (Q9UBL9 1-471): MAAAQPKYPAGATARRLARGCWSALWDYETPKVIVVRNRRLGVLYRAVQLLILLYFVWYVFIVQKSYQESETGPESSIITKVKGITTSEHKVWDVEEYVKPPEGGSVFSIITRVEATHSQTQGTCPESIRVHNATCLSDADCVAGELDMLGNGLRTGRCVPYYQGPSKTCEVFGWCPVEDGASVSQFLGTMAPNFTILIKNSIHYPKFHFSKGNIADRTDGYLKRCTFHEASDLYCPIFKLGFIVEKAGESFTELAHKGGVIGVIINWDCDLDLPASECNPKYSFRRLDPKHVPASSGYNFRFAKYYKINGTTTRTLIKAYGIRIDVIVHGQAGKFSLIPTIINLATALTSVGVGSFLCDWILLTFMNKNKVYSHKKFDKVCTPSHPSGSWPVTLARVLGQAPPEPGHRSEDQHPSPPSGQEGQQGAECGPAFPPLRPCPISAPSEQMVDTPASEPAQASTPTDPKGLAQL
The assay can be described thus: Calcium uptake assay (Ca influx), P2X antagonist assay, P2X2/3 heteromer. It counts as cell-based. Conditions: inhibition of agonist-induced calcium influx.
Excerpt: as §1, §2, §3, §4, §5

Molecules are shown by their SMILES.

What is called IC50 is the concentration needed to halve the response being measured. `Cc1ccc(-c2cc(C(=O)NCc3ccc(C)nc3)cc(N3CCNCC3=O)c2)c(C#N)c1` [Compound 65, 2′-Cyano-4′-methyl-5-(2-oxo-piperazin-1-yl)-biphenyl-3-carboxylic acid (6-methyl-pyridin-3-ylmethyl)-amide]: the figures for the IC50 on hP2X3 and at hP2X2/3H were 117 nM and 1060 nM, respectively.

On to `Cc1ccc(-c2cc(C(=O)N[C@@H](C)CO)cc(-c3cc(C)ccc3C#N)c2)nc1` [Compound 71, 2′-Cyano-5′-methyl-5-(5-methyl-pyridin-2-yl)-biphenyl-3-carboxylic acid ((S)-2-hydroxy-1-methyl-ethyl)-amide], for which the figures for the IC50 on hP2X3 and on hP2X2/3H were 43.6 nM and 240 nM, respectively.

As for `Cc1ccc(-c2cc(C(=O)NCc3ccc(C)nc3)cc(-c3ccccc3C#N)c2)nc1` [Compound 17, 2′-Cyano-5-(5-methyl-pyridin-2-yl)-biphenyl-3-carboxylic acid (6-methyl-pyridin-3-ylmethyl)-amide], the IC50 at hP2X3 was 21.6 nM; at hP2X2/3H, 24.5 nM.

Regarding `Cc1ccc(-c2cc(C(=O)N[C@@H](C)CO)cc(N3CCCC3=O)c2)cc1` [Compound 60, 4′-Methyl-5-(2-oxo-pyrrolidin-1-yl)-biphenyl-3-carboxylic acid ((S)-2-hydroxy-1-methyl-ethyl)-amide], the 50% inhibitory concentration (IC50) on hP2X3 amounted to 207 nM; on hP2X2/3H, 8680 nM.

With `Cc1ccc(-c2cc(C(=O)N[C@H](C)CN3CCOCC3)cc(-c3c(F)cccc3C(F)(F)F)c2)nc1` [Compound 83, 2′-Fluoro-5-(5-methyl-pyridin-2-yl)-6′-trifluoromethyl-biphenyl-3-carboxylic acid ((R)-1-methyl-2-morpholin-4-yl-ethyl)-amide], the IC50 at hP2X3 was found to be 72.1 nM; at hP2X2/3H, 26 nM.

For `Cc1ccc(-c2cc(C(=O)NCc3cnc(C)nc3)cc(N3CCCCC3=O)c2)cc1` [Compound 38], the IC50 amounted to 80.7 nM at hP2X3 and 226 nM on hP2X2/3H.

Take `Cc1ccc(-c2cc(C(=O)NCc3cnc(C)nc3)cc(N3CCCC3=O)c2)cc1` [Compound 50, 4′-Methyl-5-(2-oxo-pyrrolidin-1-yl)-biphenyl-3-carboxylic acid (2-methyl-pyrimidin-5-ylmethyl)-amide]: the IC50 was found to be 25.9 nM at hP2X3 and 428 nM at hP2X2/3H.

As for `Cc1ccc(-c2cc(C(=O)NCc3ccc(C)nc3)cc(-c3ccncc3)c2)cc1` [Compound 22, 4′-Methyl-5-pyridin-4-yl-biphenyl-3-carboxylic acid (6-methyl-pyridin-3-ylmethyl)-amide], the IC50 at hP2X3 worked out at 191 nM; at hP2X2/3H, 143 nM.

Take `Cc1ccc(-c2cc(C(=O)NCc3cnc(C)nc3)cc(N3CCOCC3=O)c2)c(C#N)c1` [Compound 64, 2′-Cyano-4′-methyl-5-(3-oxo-morpholin-4-yl)-biphenyl-3-carboxylic acid (2-methyl-pyrimidin-5-ylmethyl)-amide]: the IC50 on hP2X3 was found to be 33.2 nM; on hP2X2/3H, 254 nM.

As to `Cc1ccc(-c2cc(C(=O)N[C@H](C)c3cnc(C)nc3)cc(-c3ccccc3C(=O)N(C)C)c2)nc1` [Compound 54, 5′-(5-Methyl-pyridin-2-yl)-biphenyl-2,3′-dicarboxylic acid 2-dimethylamide 3′-{[(R)-1-(2-methyl-pyrimidin-5-yl)-ethyl]-amide}], the IC50 is 55.2 nM at hP2X3 and 509 nM on hP2X2/3H.

Take `COc1ccc(-c2cc(C(=O)NCc3ccc(C)nc3)cc(-c3ccc(C)cc3)c2)cc1OC` [Compound 10, 3″,4″-Dimethoxy-4-methyl-[1,1′;3′,1″]terphenyl-5′-carboxylic acid (6-methyl-pyridin-3-ylmethyl)-amide]: the IC50 at hP2X3 is 759 nM; on hP2X2/3H, 1270 nM.

As to `Cc1ccc(-c2cc(C(=O)N[C@H](C)CN3CCOCC3)cc(-c3cccc(F)c3F)c2)nc1` [Compound 77, (R)-2′,3′-difluoro-5-(5-methylpyridin-2-yl)-N-(1-morpholinopropan-2-yl)biphenyl-3-carboxamide], the IC50 at hP2X3 came to 99.5 nM; at hP2X2/3H it was 373 nM.

Consider `Cc1ncc([C@@H](C)NC(=O)c2cc(-c3ccccn3)cc(-c3ccccc3CO)c2)cn1` [Compound 44, 2′-Hydroxymethyl-5-pyridin-2-yl-biphenyl-3-carboxylic acid [(R)-1-(2-methyl-pyrimidin-5-yl)-ethyl]-amide], for which the IC50 on hP2X3 worked out at 91.6 nM; on hP2X2/3H it was 293 nM.

As to `Cc1ccc(-c2cc(C(=O)NCc3ccc(C)nc3)cc(N3CCN(C)CC3=O)c2)cc1` [Compound 68, 4′-Methyl-5-(4-methyl-2-oxo-piperazin-1-yl)-biphenyl-3-carboxylic acid (6-methyl-pyridin-3-ylmethyl)-amide], the IC50 on hP2X3 was 371 nM; at hP2X2/3H, 1390 nM.

Consider `Cc1ccc(-c2cc(C(=O)NCc3ccc(C)nc3)cc(-c3ccccc3F)c2)nc1` [Compound 15, 2′-Fluoro-5-(5-methyl-pyridin-2-yl)-biphenyl-3-carboxylic acid (6-methyl-pyridin-3-ylmethyl)-amide], for which the IC50 at hP2X3 turned out to be 73.2 nM; at hP2X2/3H, 54.9 nM.

`Cc1ccc(-c2cc(C(=O)NCc3ccc(C)nc3)cc(-c3ccc(F)cc3F)c2)cc1` [Compound 5, 2″,4″-Difluoro-4-methyl-[1,1′;3′,1″]terphenyl-5′-carboxylic acid (6-methyl-pyridin-3-ylmethyl)-amide]: the IC50 turned out to be 1960 nM on hP2X3 and 8310 nM on hP2X2/3H.

On to `Cc1ccc(-c2cc(C(=O)NCc3ccc(C)nc3)cc(N3CCN(C)CC3=O)c2)c(C#N)c1` [Compound 67, 2′-Cyano-4′-methyl-5-(4-methyl-2-oxo-piperazin-1-yl)-biphenyl-3-carboxylic acid (6-methyl-pyridin-3-ylmethyl)-amide], for which the IC50 on hP2X3 was determined as 102 nM; at hP2X2/3H, 667 nM.

Regarding `COc1ccc(-c2cc(C(=O)NCc3ccc(C)nc3)cc(-c3ccc(C)cc3)c2)cc1` [Compound 7, 4″-Methoxy-4-methyl-[1,1′;3′,1″]terphenyl-5′-carboxylic acid (6-methyl-pyridin-3-ylmethyl)-amide], the IC50 came to 2460 nM on hP2X3 and 9200 nM on hP2X2/3H.

As for `Cc1ccc(-c2cc(C(=O)NCc3ccc(C)nc3)cc(N3CCCC3=O)c2)cc1` [Compound 49, 4′-Methyl-5-(2-oxo-pyrrolidin-1-yl)-biphenyl-3-carboxylic acid (6-methyl-pyridin-3-ylmethyl)-amide], the IC50 at hP2X3 worked out at 34.1 nM; on hP2X2/3H it was 205 nM.

On to `COc1ncc(-c2cc(C(=O)NCc3ccc(C)nc3)cc(-c3ccc(C)cc3)c2)cn1` [Compound 12, 5-(2-Methoxy-pyrimidin-5-yl)-4′-methyl-biphenyl-3-carboxylic acid (6-methyl-pyridin-3-ylmethyl)-amide], for which the IC50 at hP2X3 was found to be 292 nM; at hP2X2/3H it was 291 nM.

These data come from patent publication US9133122B2, “Amide compounds, compositions and uses thereof” (EVOTEC AG, priority 2008, dated 2015).
